Measured values as given in patent publication US20020142942A1, “Method for treating premenstrual or late luteal phase syndrome” (Merck & Co. Inc., priority 1997, published 2002).

Experiments:
[1] = tested on: foot tapping in gerbils induced by central injection of an NK1 agonist; test: Gerbil foot-tapping assay; assay type: in vivo, Mongolian gerbils; conditions: i.v.
Excerpt: Gerbil Foot-Tapping Assay CNS penetrant NK-1 receptor antagonists for use in the present invention can be identified by their ability to inhibit foot tapping in gerbils induced by anxiogenic agents (such as pentagastrin) or central infusion of NK-1 receptor agonists such as GR73632, or caused by aversive stimulation such as foot shock or single housing, based on the method of Rupniak & Williams, Eur. J. Pharmacol., 1994, 265, 179. Male or female Mongolian gerbils (35-70 g) are anaesthetised by inhalation of an isoflurane/oxygen mixture to permit exposure of the jugular vein in order to permit administration of test compounds or vehicle in an injection volume of 5 ml/kg i.v. Alternatively, test compounds may be administered orally or by subcutaneous or intraperitoneal routes. The wound is closed and a second skin incision is made in the midline of the scalp to expose the skull. […] The duration and/or intensity of hind foot tapping is then recorded continuously for 5 minutes. Alternatively, the ability of test compounds to inhibit foot tapping evoked by aversive stimulation, such as foot shock or single housing, may be studied using a similar method of quantification.

[2] = tested on: women with premenstrual syndrome; test: Double-blind, placebo-controlled study of mood and appetite disturbances associated with premenstrual syndrome; assay type: in vivo; conditions: 30 mg/day, compared with placebo, Hamilton Depression Scale and PMS/LLPD Symptom Rating Scale
Experimental: Double-Blind, Placebo-Controlled Study to Determine the Effect of a Substance P Antagonist on Mood and Appetite Disturbances Associated with Premenstrual Syndrome in Women.
Approximately twenty women receive either the substance P receptor antagonist 2-(R)-(1-(R)-(3,5-bis(trifluoromethyl)phenyl)ethoxy)-3-(S)-(4-fluorophenyl)-4-(3-(5-oxo-1H,4H-1,2,4-triazolo)methyl-morpholine (30 mg/day) or a placebo starting approximately two weeks prior to their expected menstrual period. Each subject participates in 6 randomized test periods; in 3 of the test periods, each is given the substance P antagonist and in the other 3 test periods, is given a placebo. Mood is assessed 1-3 days before the onset of menses, using the Hamilton Depression Scale and the PMS/LLPD Symptom Rating Scale, for mood and appetite symptoms. Hamilton, N., Journal of Neurosurgery and Psychiatry, 23:56-62 (1960); Steiner, M. et al., Acta Psychiatrica Scandinavia, 62:177-190 (1980). Food intake is measured through the use of self-reports (when subjects were out-patients), and directly (while subjects were inpatients), during one drug and one placebo period; subjects also are weighed. The results between the test periods are compared and the results for each subject are evaluated.

[3] = tested on: distress vocalisations in guinea-pig pups; test: Separation-induced vocalisation assay; assay type: in vivo, guinea-pigs; conditions: p.o.
Excerpt: Separation-Induced Vocalisation Assay Male and female guinea-pigs pups are housed in family groups with their mothers and littermates throughout the study. Experiments are commenced […] when the pups are 2 weeks old. Before entering an experiment, the pups are screened to ensure that a vigorous vocalisation response is reproducibly elicited following maternal separation. The pups are placed individually in an observation cage (55 cm×39 cm×19 cm) in a room physically isolated from the home cage for 15 minutes and the duration of vocalisation during this baseline period is recorded. Only animals which vocalise for longer than 5 minutes are employed for drug challenge studies (approximately 50% of available pups may fail to reach this criterion). On test days each pup receives an oral dose or a s.c. or i.p. injection of test compound or vehicle and is then immediately returned to the home cage with its mother and siblings for 30 minutes to 60 minutes (or for up to 4 hours following an oral dose, dependant upon the oral pharmacokinetics of the test compound) before social isolation for 15 minutes as described above. The duration of vocalisation on drug treatment days is expressed as a percentage of the pre-treatment baseline value for each animal. The same subjects are retested once weekly for up to 6 weeks. Between 6 and 8 animals receive each test compound at each dose tested. […]

[4] = tested on: cisplatin-induced emesis in ferrets; test: Ferret emesis assay; assay type: in vivo; conditions: p.o.
Experimental: Ferret Emesis Assay Individually housed male ferrets (1.0-2.5 kg) are dosed orally by gavage with test compound. Ten minutes later they are fed with approximately 100 g of tinned cat food. At 60 minutes following oral dosing, cisplatin (10 mg(kg) is given i.v. via a jugular vein catheter inserted under a brief period of halothane anaesthesia. The catheter is then removed, the jugular vein ligated and the skin incision closed. The ferrets recover rapidly from the anaesthetic and are mobile within 10-20 minutes. The animals are observed continuously during recovery from the anaesthetic and for 4 hours following the cisplatin injection, after which time the animals are killed humanely. The numbers of retches and vomits occurring during the 4 hours after cisplatin administration are recorded by trained observers.

gerbil foot-tapping (5 mins.): IC50 ([1]; 5 mins.): IC50 = 0.36 mg/kg i.v.
gerbil foot-tapping (24 hrs.): IC50 ([1]; 24 hrs.): IC50 = 0.33 mg/kg i.v.
Compound: C[C@@H](O[C@H]1OCCN(Cc2n[nH]c(=O)[nH]2)[C@H]1c1ccc(F)cc1)c1cc(C(F)(F)F)cc(C(F)(F)F)c1 [2-(R)-(1-(R)-(3,5-bis(trifluoromethyl)-phenyl)-ethoxy)-3-(S)-(4-fluorophenyl)-4-(3-(5-oxo-1H,4H-1,2,4-triazolo)methyl)-morpholine]
effect in decreasing depression and other negative mood states [2]: positive effect with respect to placebo
guinea-pig vocalisation (4 hr. pre-treatment): ID50 [3]: ID50 = 0.73 mg/kg p.o.
ferret emesis: ID90 [4]: ID90 = <3 mg/kg p.o.
